Results reported in publication PMC10484922, “Discovery of a selective and biologically active low-molecular weight antagonist of human interleukin-1β” (Nature Communications, 2023).
“And” between values parts separate entries of the source, which are not always exact repeats. Equal values may be shown once. Read-outs that look alike come from different tables or passages of the source.

What was measured:
[1] = system: normal human dermal fibroblasts stimulated with hIL-1β; assay: Human fibroblast IL-6 release assay, hIL-1β stimulated; assay type: cell-based; parameters: IL-6, average / inhibition, replicates of EXP1, EXP2, EXP3 / inhibition, Mean / IL-1beta (mean, SD): mean readout (IL-6 release): unit not given here; conditions: for inhibition, Mean / inhibition, replicates of EXP1, EXP2, EXP3: Figure 3b; for Mean OD (OD 450nm) / IL-1beta (mean, SD): mean readout (IL-6 release): Figure 3c; for Mean OD (OD 450nm): compound 500 nM; for IL-1beta (mean, SD): mean readout (IL-6 release): compound @ 50uM
Method: (§1) We used HEK-Blue™ IL-1β cells that respond specifically to IL-1 (# hkb-il1b, InvivoGen). These cells can detect IL-1α and IL-1β, as these cytokines bind to the same receptor, IL-1R1. They express a Seap reporter gene under the control of the IFN-β minimal promoter fused to five NF-kappaB and five AP-1 binding sites. Thirty microliters (300,000 cells/ml) per well of a 384-well plate were plated overnight. Cells were then stimulated with graded concentrations of cytokines (hIL-1α or hIL-1β) in the absence or presence of canakinumab (Ilaris®, ILARI LYVI 150MG 22GLW.012, batch U003 0409)[22], anakinra (Kineret®, 100 mg/0.67 ml injectable solution, Sobi)[23], or compound (S)-2 (compounds were pre-mixed for 1 h with the cytokine prior to addition to cells) and further incubated overnight before assessment of Seap activity.
(§2) Normal human dermal fibroblasts (NHDF) from Clonetics^TM (LONZA, Cat # CC-2509 (NHDF-Neo), Lot # 0000234242, used at passage ≤14) were seeded at a density of 5000 cells/well in 100 μL of culture medium using 96-well plates (flat bottom, TCT). Treatment with cytokines/compounds was performed as described above. Cells were incubated for another 6 h and were subsequently spun down (320g/3 min). IL-6 was measured in the supernatant by ELISA (BioLegend, # 430503) or HTRF (Cisbio, #62HIL06PEH).

[2] = system: normal human dermal fibroblasts stimulated with hIL-1α; assay: Human fibroblast IL-6 release assay, hIL-1α stimulated; assay type: cell-based; parameters: IL-1alpha (mean, SD): mean readout (IL-6 release): unit not given here; conditions: for Mean OD (OD 450nm) / IL-1alpha (mean, SD): mean readout (IL-6 release): Figure 3c; for Mean OD (OD 450nm): compound 500 nM; for IL-1alpha (mean, SD): mean readout (IL-6 release): compound @ 50uM
Method: as §1, §2

[3] = biological target: IL-1β (Homo sapiens, UniProt P01584); assay: 19F-reporter displacement assay with (S)-1 as probe; assay type: binding; parameters: Mature hIL-1β was expressed in Escherichia coli; made in house; host or cells: Escherichia coli BL21 (DE3), pET17b; conditions: protein 10 μM, reporter (S)-1 40 μM; read-out: 19F-reporter Ki
IL-1β, sequence (P01584 117-269): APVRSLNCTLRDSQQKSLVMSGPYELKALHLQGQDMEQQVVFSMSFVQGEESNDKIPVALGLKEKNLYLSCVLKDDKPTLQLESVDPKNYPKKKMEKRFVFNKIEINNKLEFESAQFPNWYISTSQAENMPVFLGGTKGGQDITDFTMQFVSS

[4] = biological target: T1, IL-1α (Homo sapiens, UniProt P01583); assay: TR-FRET IL-1α/hIL-1R1 receptor displacement assay; assay type: biochemical; parameters: TR-FRET raw data: scale not given here
T1 sequence (P01583 113-271): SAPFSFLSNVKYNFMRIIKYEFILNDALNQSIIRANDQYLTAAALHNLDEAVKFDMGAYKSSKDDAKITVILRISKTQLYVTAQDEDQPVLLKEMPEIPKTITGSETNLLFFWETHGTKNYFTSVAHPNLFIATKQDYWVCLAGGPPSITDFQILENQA
Method in brief: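 Competitive TR-FRET displacement: after 1 h at room temperature with test compound, Alexa 647-labeled hIL-1R1 (1–332; 50 nM final) and anti-His-Europium (1 nM final) added, further 1 h at room temperature. Emission read at 620/665 nm (excitation 320 nm); triplicates, IC50 from Hill-equation fit.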

[5] = (S)-2 concentration 0.05 (unit not given)
[6] = (S)-2 concentration 0.4 (unit not given)
[7] = (S)-2 concentration 1 (unit not given)
[8] = (S)-2 concentration 4 (unit not given)
[9] = (S)-2 concentration 11 (unit not given)
[10] = (S)-2 concentration 33 (unit not given)
[11] = (S)-2 concentration 100 (unit not given)
[12] = IL-1alpha, 0.01 uM, per experiment
[13] = IL-1alpha, 0.1 uM, per experiment
[14] = IL-1alpha, 0.2 uM, per experiment
[15] = IL-1alpha, 2 uM, per experiment
[16] = IL-1alpha, 63 uM, per experiment
[17] = IL-1alpha, 200 uM, per experiment

## Cc1ccc2c(c1)NC(=O)[C@@]2(c1cn[nH]c1)c1cc(-c2ccc(C(=O)O)cc2C(=O)O)ccc1O [Compound (S)-2]
[1]
  block of hIL-1β driven IL-6 release: could inhibit the response to hIL-1β
[1]; [5]
  inhibition, Mean: 11.8111
  inhibition, replicates of EXP1, EXP2, EXP3: 1.099 and 7.654 and 32.9874 and 11.239 and 6.325 and 15.536 and -5.489 and 15.493 and 21.4551
[1]; (S)-2 concentration 0.1 (unit not given)
  inhibition, replicates of EXP1, EXP2, EXP3: 18.345 and 33.8012 and 24.896 and 0.607 and 18.6036 and 23.695 and -10.879 and 23.6096
[1]; [6]
  inhibition, Mean: 16.1795
  inhibition, replicates of EXP1, EXP2, EXP3: 6.922 and -13.568 and 28.7773 and 15.933 and -2.853 and 20.6147 and 21.633 and -16.264 and 22.2291
[1]; [7]
  inhibition, Mean: 20.6552
  inhibition, replicates of EXP1, EXP2, EXP3: 28.445 and 6.394 and 37.2847 and 8.462 and 8.741 and 33.0478 and 30.776 and 11.643 and 21.1029
[1]; [8]
  inhibition, Mean: 41.6476
  inhibition, replicates of EXP1, EXP2, EXP3: 30.652 and 40.964 and 60.1425 and 37.001 and 32.643 and 49.8155 and 34.125 and 37.671 and 51.8132
[1]; [9]
  inhibition, Mean: 62.727
  inhibition, replicates of EXP1, EXP2, EXP3: 59.128 and 61.883 and 67.9669 and 57.955 and 65.648 and 69.7834 and 54.055 and 63.991 and 64.1355
[1]; [10]
  inhibition, Mean: 85.133
  inhibition, replicates of EXP1, EXP2, EXP3: 83.359 and 83.395 and 85.1881 and 82.704 and 84.749 and 90.3418 and 80.717 and 88.643 and 87.1001
[1]; [11]
  inhibition, Mean: 92.537
  inhibition, replicates of EXP1, EXP2, EXP3: 91.3 and 94.175 and 93.9868 and 93.148 and 93.985 and 90.8655 and 91.665 and 91.77 and 91.9373
[1]; hu IL-1b 0 pg/mL
  Mean OD (OD 450nm): 0.033
  IL-1beta (mean, SD): mean readout (IL-6 release): 0
[1]; hu IL-1b 40 pg/mL
  Mean OD (OD 450nm): 0.067
  IL-1beta (mean, SD): mean readout (IL-6 release): 0
[1]; hu IL-1b 80 pg/mL
  Mean OD (OD 450nm): 0.219
  IL-1beta (mean, SD): mean readout (IL-6 release): 866.8
[1]; hu IL-1b 120 pg/mL
  Mean OD (OD 450nm): 0.313
  IL-1beta (mean, SD): mean readout (IL-6 release): 1562
[1]; hu IL-1b 160 pg/mL
  Mean OD (OD 450nm): 0.45
  IL-1beta (mean, SD): mean readout (IL-6 release): 2574.8
[1]; hu IL-1b 200 pg/mL
  Mean OD (OD 450nm): 0.463
  IL-1beta (mean, SD): mean readout (IL-6 release): 2669.4
[1]; Homo sapiens, Fibroblast, 6 h, human dermal fibroblasts, hIL-1β, 6 h, read-out: IL-6 release IC50
  IC50: 7.9 ± 2 µM
[1]; human dermal fibroblasts, hIL-1β, 6 h
  IL-6 release IC50: single digit micromolar range
[1]; source data, read-out: IL-6 IC50, individual experiments
  IC50: 18.8 µM and 26.2 µM and 7.43 µM and 6.22 µM and 5.77 µM and 5.73 µM and 4.59 µM and 7.91 µM and 8.11 µM and 5.61 µM and 6.38 µM
[2]
  effect on hIL-1α driven IL-6 release: had no effect on hIL-1α driven IL-6 release
[2]; hu IL-1A 0 pg/mL
  Mean OD (OD 450nm): 0.031
[2]; hu IL-1A 40 pg/mL
  Mean OD (OD 450nm): 0.372
[2]; hu IL-1A 80 pg/mL
  Mean OD (OD 450nm): 0.573
[2]; hu IL-1A 120 pg/mL
  Mean OD (OD 450nm): 0.693
[2]; hu IL-1A 160 pg/mL
  Mean OD (OD 450nm): 0.736
[2]; hu IL-1A 200 pg/mL
  Mean OD (OD 450nm): 0.751
[2]; hu IL-1a 0 pg/mL
  IL-1alpha (mean, SD): mean readout (IL-6 release): 0
[2]; hu IL-1a 40 pg/mL
  IL-1alpha (mean, SD): mean readout (IL-6 release): 1994.8
[2]; hu IL-1a 80 pg/mL
  IL-1alpha (mean, SD): mean readout (IL-6 release): 3486.9
[2]; hu IL-1a 120 pg/mL
  IL-1alpha (mean, SD): mean readout (IL-6 release): 4374.4
[2]; hu IL-1a 160 pg/mL
  IL-1alpha (mean, SD): mean readout (IL-6 release): 4691.2
[2]; hu IL-1a 200 pg/mL
  IL-1alpha (mean, SD): mean readout (IL-6 release): 4802.2
[3]
  Ki: < 10 µM
[4]
  inhibition of the IL-1R1/IL-1α interaction: did not observe inhibition of IL-1α
[4]; [12]
  TR-FRET calculated % inhibition: 3%
  TR-FRET raw data: 96 and 97
[4]; IL-1alpha, 0.01 uM, per experiment, read-out: TR-FRET calculated % inhibition
  inhibition at 0.01 µM: 4%
[4]; IL-1alpha, 0.02 uM, per experiment
  TR-FRET raw data: 96
[4]; IL-1alpha, 0.02 uM, per experiment, read-out: TR-FRET calculated % inhibition
  inhibition at 0.02 µM: 5%
[4]; [13]
  TR-FRET calculated % inhibition: 2%
  TR-FRET raw data: 96 and 98
[4]; IL-1alpha, 0.1 uM, per experiment, read-out: TR-FRET calculated % inhibition
  inhibition at 0.1 µM: 4%
[4]; [14]
  TR-FRET calculated % inhibition: 3%
  TR-FRET raw data: 95 and 97
[4]; IL-1alpha, 0.2 uM, per experiment, read-out: TR-FRET calculated % inhibition
  inhibition at 0.2 µM: 6%
[4]; IL-1alpha, 0.6 uM, per experiment
  TR-FRET raw data: 99 and 89
[4]; [15]
  TR-FRET calculated % inhibition: 2% and 11%
  TR-FRET raw data: 98 and 90
[4]; IL-1alpha, 6 uM, per experiment
  TR-FRET raw data: 87 and 97
[4]; IL-1alpha, 20 uM, per experiment
  TR-FRET raw data: 87 and 99
[4]; [16]
  TR-FRET calculated % inhibition: 8% and 2%
  TR-FRET raw data: 93 and 98
[4]; [17]
  TR-FRET calculated % inhibition: 7% and 1%
  TR-FRET raw data: 94 and 99
[4]; Il1a, read-out: TR-FRET IC50, individual experiments
  IC50: > 200 µM
[4]; read-out: TR-FRET IL-1α IC50
  IC50: > 200 µM
